Measured values taken from the supplement of paper PMC11208160.

Experiment: recombinant UMI read abundance after kanamycin selection (control-corrected) (log10(CPM+1)); higher = more efficient recombination; extreme values may be limits of the assay; sequences stand for … in AGTGCAGAGAAAATCGGCCAGTTTTCTCTGCCTGCAGTCCGCATGCCGTGGGACCCCTTGGGTTCTAACCTGTTGCCTAGATTTATGCAGCGGACTGCCTTTCTCCCAAAGTGATAAACCGG…AGGTTGGTTTCACT; site = the 11-nt donor
Protocol: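 Pooled E. coli donor-specificity screen for the IS621 bridge recombinase. Each library member carries a reprogrammed 11-nt donor and a full-length LE bridge RNA expressed in cis from the natural promoter, with a paired donor-binding loop (8-nt LDG + 4-nt RDG) and a target-binding loop fixed to T5. It is co-electroporated with a T5 target plasmid; recombinase is induced with 0.07 mM IPTG and recombinants are selected on kanamycin. UMIs are counted as CPM, averaged over two biological replicates and corrected by the unselected control. Molecule = full bridge RNA written as DNA, built from the T5 scaffold: LDG = donor specificity nt 1-8, RDG = reverse complement of nt 8-11.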
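Note: IS621 bridge recombinase in Escherichia coli cells against a fixed T5 target plasmid.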

Row | Sequence | recombinant UMI read abundance (log10)
1 | AAAAAGGCATGGACCGGTTTTCCCGGTAATCCGTATTTGCT (site AAAAAGGCTAG) | 1.88
2 | AAAAAGGCATGGACCGGTTTTCCCGGTAATCCGTATTTGCT (site ACAAAGGCTAG) | 1.19
3 | AAAAAGGCATGGACCGGTTTTCCCGGTAATCCGTATTTGCT (site AGAAAGGCTAG) | 0.722
4 | AAAAAGGCATGGACCGGTTTTCCCGGTAATCCGTATTTGCT (site ATAAAGGCTAG) | 1.59
5 | AAAACCACATGGACCGGTTTTCCCGGTAATCCGTATTTGCT (site AAAACCACTAG) | 1.82
6 | AAAATATCATGGACCGGTTTTCCCGGTAATCCGTATTTGCA (site AAAATATCTTG) | 2.21
7 | AAAATATCATGGACCGGTTTTCCCGGTAATCCGTATTTGCA (site ACAGTATCTTG) | 1.88
8 | AAACGCACATGGACCGGTTTTCCCGGTAATCCGTATTTGGG (site AAACGCACTCC) | 0.0145
9 | AAACGGGCATGGACCGGTTTTCCCGGTAATCCGTATTTGCG (site AAACGGGCTCG) | 0.661
10 | AAACTGTCATGGACCGGTTTTCCCGGTAATCCGTATTTGCC (site AAACTGTCTGG) | 1.79
11 | AAACTGTCATGGACCGGTTTTCCCGGTAATCCGTATTTGTT (site AAACTGTCTAA) | 1.97
12 | AAACTTGCATGGACCGGTTTTCCCGGTAATCCGTATTTGGA (site AAACTTGCTTC) | 0.688
13 | AAAGATCCATGGACCGGTTTTCCCGGTAATCCGTATTTGGC (site AAAGATCCTGC) | 0
14 | AAAGCCCCATGGACCGGTTTTCCCGGTAATCCGTATTTGAA (site AAAGCCCCTTT) | 0.767
15 | AAAGCCTCATGGACCGGTTTTCCCGGTAATCCGTATTTGAA (site AAAGCCTCTTT) | 2.63
16 | AAAGCTCCATGGACCGGTTTTCCCGGTAATCCGTATTTGTA (site AAAGCTCCTTA) | 1.42
17 | AAAGGCACATGGACCGGTTTTCCCGGTAATCCGTATTTGAA (site AAAGGCACTTT) | 0.56
18 | AAAGGGACATGGACCGGTTTTCCCGGTAATCCGTATTTGAG (site AAAGGGACTCT) | 1.76
19 | AAAGGGCCATGGACCGGTTTTCCCGGTAATCCGTATTTGAG (site AAAGGGCCTCT) | 0.0224
20 | AAAGTAGCATGGACCGGTTTTCCCGGTAATCCGTATTTGCT (site AAAGTAGCTAG) | 1.94
21 | AAAGTCACATGGACCGGTTTTCCCGGTAATCCGTATTTGGG (site AAAGTCACTCC) | 0.0214
22 | AAAGTCACATGGACCGGTTTTCCCGGTAATCCGTATTTGGG (site CAAGTCACTCC) | 0.458
23 | AAAGTCACATGGACCGGTTTTCCCGGTAATCCGTATTTGGG (site GAAGTCACTCC) | 0.00503
24 | AAAGTCACATGGACCGGTTTTCCCGGTAATCCGTATTTGGG (site TAAGTCACTCC) | 0.158

Row | Sequence | recombinant UMI read abundance (log10)
25 | AAATACACATGGACCGGTTTTCCCGGTAATCCGTATTTGCT (site AAATACACTAG) | 2.41
26 | AAATATGCATGGACCGGTTTTCCCGGTAATCCGTATTTGGA (site AAATATGCTTC) | 1.25
27 | AAATATGCATGGACCGGTTTTCCCGGTAATCCGTATTTGGA (site AACTATGCTTC) | 1
28 | AAATATGCATGGACCGGTTTTCCCGGTAATCCGTATTTGGA (site AAGTATGCTTC) | 1.23
29 | AAATATGCATGGACCGGTTTTCCCGGTAATCCGTATTTGGA (site AATTATGCTTC) | 0.905
30 | AAATCGACATGGACCGGTTTTCCCGGTAATCCGTATTTGGT (site AAATCGACTAC) | 0.133
31 | AAATCGTCATGGACCGGTTTTCCCGGTAATCCGTATTTGTC (site AAATCGTCTGA) | 1.91
32 | AAATGAGCATGGACCGGTTTTCCCGGTAATCCGTATTTGGG (site AAATGAGCTCC) | 0.252
33 | AAATGAGCATGGACCGGTTTTCCCGGTAATCCGTATTTGGG (site CAATGAGCTCC) | 0.247
34 | AAATGAGCATGGACCGGTTTTCCCGGTAATCCGTATTTGGG (site GAATGAGCTCC) | 0.00588
35 | AAATGAGCATGGACCGGTTTTCCCGGTAATCCGTATTTGGG (site TAATGAGCTCC) | 0.46
36 | AAATGATCATGGACCGGTTTTCCCGGTAATCCGTATTTGAG (site AAATGATCTCT) | 2.71
37 | AAATGCACATGGACCGGTTTTCCCGGTAATCCGTATTTGGG (site AAATGCACTCC) | 0.0107
38 | AAATGCTCATGGACCGGTTTTCCCGGTAATCCGTATTTGAA (site AAATGCTCTTT) | 1.66
39 | AAATGCTCATGGACCGGTTTTCCCGGTAATCCGTATTTGAA (site CAATGCTCTTT) | 1.65
40 | AAATGCTCATGGACCGGTTTTCCCGGTAATCCGTATTTGAA (site GAATGCTCTTT) | 0.961
41 | AAATGCTCATGGACCGGTTTTCCCGGTAATCCGTATTTGAA (site TAATGCTCTTT) | 1.17
42 | AAATGGCCATGGACCGGTTTTCCCGGTAATCCGTATTTGCA (site AAATGGCCTTG) | 0.00935
43 | AAATGGCCATGGACCGGTTTTCCCGGTAATCCGTATTTGCA (site CAATGGCCTTG) | 0
44 | AAATGGCCATGGACCGGTTTTCCCGGTAATCCGTATTTGCA (site GAATGGCCTTG) | 0
45 | AAATGGCCATGGACCGGTTTTCCCGGTAATCCGTATTTGCA (site TAATGGCCTTG) | 0
46 | AAATTTGCATGGACCGGTTTTCCCGGTAATCCGTATTTGGC (site AAATTTGCTGC) | 0
47 | AACAAACCATGGACCGGTTTTCCCGGTAATCCGTATTTGGT (site AACAAACCTAC) | 0
48 | AACAAACCATGGACCGGTTTTCCCGGTAATCCGTATTTGGT (site CACAAACCTAC) | 0

Row | Sequence | recombinant UMI read abundance (log10)
49 | AACAAACCATGGACCGGTTTTCCCGGTAATCCGTATTTGGT (site GACAAACCTAC) | 0
50 | AACAAACCATGGACCGGTTTTCCCGGTAATCCGTATTTGGT (site TACAAACCTAC) | 0.337
51 | AACACCCCATGGACCGGTTTTCCCGGTAATCCGTATTTGAG (site AACACCCCTCT) | 0.0941
52 | AACACTGCATGGACCGGTTTTCCCGGTAATCCGTATTTGAG (site AACACTGCTCT) | 1.31
53 | AACATACCATGGACCGGTTTTCCCGGTAATCCGTATTTGGA (site AACATACCTTC) | 0.0114
54 | AACCACTCATGGACCGGTTTTCCCGGTAATCCGTATTTGCC (site AACCACTCTGG) | 3.01
55 | AACCATCCATGGACCGGTTTTCCCGGTAATCCGTATTTGCC (site AACCATCCTGG) | 0.00555
56 | AACCCGGCATGGACCGGTTTTCCCGGTAATCCGTATTTGGA (site AACCCGGCTTC) | 0.181
57 | AACCCTCCATGGACCGGTTTTCCCGGTAATCCGTATTTGAT (site AACCATCCTAT) | 0.00728
58 | AACCCTCCATGGACCGGTTTTCCCGGTAATCCGTATTTGAT (site AACCCTCCTAT) | 0.115
59 | AACCCTCCATGGACCGGTTTTCCCGGTAATCCGTATTTGAT (site AACCGTCCTAT) | 0.015
60 | AACCCTCCATGGACCGGTTTTCCCGGTAATCCGTATTTGAT (site AACCTTCCTAT) | 0.011
61 | AACCGCCCATGGACCGGTTTTCCCGGTAATCCGTATTTGAA (site AACCGCCCTTT) | 0.156
62 | AACCGTCCATGGACCGGTTTTCCCGGTAATCCGTATTTGTT (site AACCGTCCTAA) | 0.00892
63 | AACCGTCCATGGACCGGTTTTCCCGGTAATCCGTATTTGTT (site AACCGTCCTAC) | 0.0168
64 | AACCGTCCATGGACCGGTTTTCCCGGTAATCCGTATTTGTT (site AACCGTCCTAG) | 0.794
65 | AACCGTCCATGGACCGGTTTTCCCGGTAATCCGTATTTGTT (site AACCGTCCTAT) | 0.0199
66 | AACCTCTCATGGACCGGTTTTCCCGGTAATCCGTATTTGCC (site AACCTCTCTGG) | 2.62
67 | AACGAGCCATGGACCGGTTTTCCCGGTAATCCGTATTTGGC (site AACGAGCCTGC) | 0
68 | AACGATCCATGGACCGGTTTTCCCGGTAATCCGTATTTGGC (site AACGATCCTGC) | 1.07
69 | AACGGCCCATGGACCGGTTTTCCCGGTAATCCGTATTTGTT (site AACGGCCCTAA) | 0
70 | AACGGCCCATGGACCGGTTTTCCCGGTAATCCGTATTTGTT (site CACGGCCCTAA) | 0.071
71 | AACGGCCCATGGACCGGTTTTCCCGGTAATCCGTATTTGTT (site GACGGCCCTAA) | 0.0173
72 | AACGGCCCATGGACCGGTTTTCCCGGTAATCCGTATTTGTT (site TACGGCCCTAA) | 0.00583
